For the experiment, the target named is ROCK2 (human) (UniProt O75116). The experiment in a line: Assessment of ROCK2 Kinase Activity.
Sequence of ROCK2 (human) (O75116 whole entry, looked up): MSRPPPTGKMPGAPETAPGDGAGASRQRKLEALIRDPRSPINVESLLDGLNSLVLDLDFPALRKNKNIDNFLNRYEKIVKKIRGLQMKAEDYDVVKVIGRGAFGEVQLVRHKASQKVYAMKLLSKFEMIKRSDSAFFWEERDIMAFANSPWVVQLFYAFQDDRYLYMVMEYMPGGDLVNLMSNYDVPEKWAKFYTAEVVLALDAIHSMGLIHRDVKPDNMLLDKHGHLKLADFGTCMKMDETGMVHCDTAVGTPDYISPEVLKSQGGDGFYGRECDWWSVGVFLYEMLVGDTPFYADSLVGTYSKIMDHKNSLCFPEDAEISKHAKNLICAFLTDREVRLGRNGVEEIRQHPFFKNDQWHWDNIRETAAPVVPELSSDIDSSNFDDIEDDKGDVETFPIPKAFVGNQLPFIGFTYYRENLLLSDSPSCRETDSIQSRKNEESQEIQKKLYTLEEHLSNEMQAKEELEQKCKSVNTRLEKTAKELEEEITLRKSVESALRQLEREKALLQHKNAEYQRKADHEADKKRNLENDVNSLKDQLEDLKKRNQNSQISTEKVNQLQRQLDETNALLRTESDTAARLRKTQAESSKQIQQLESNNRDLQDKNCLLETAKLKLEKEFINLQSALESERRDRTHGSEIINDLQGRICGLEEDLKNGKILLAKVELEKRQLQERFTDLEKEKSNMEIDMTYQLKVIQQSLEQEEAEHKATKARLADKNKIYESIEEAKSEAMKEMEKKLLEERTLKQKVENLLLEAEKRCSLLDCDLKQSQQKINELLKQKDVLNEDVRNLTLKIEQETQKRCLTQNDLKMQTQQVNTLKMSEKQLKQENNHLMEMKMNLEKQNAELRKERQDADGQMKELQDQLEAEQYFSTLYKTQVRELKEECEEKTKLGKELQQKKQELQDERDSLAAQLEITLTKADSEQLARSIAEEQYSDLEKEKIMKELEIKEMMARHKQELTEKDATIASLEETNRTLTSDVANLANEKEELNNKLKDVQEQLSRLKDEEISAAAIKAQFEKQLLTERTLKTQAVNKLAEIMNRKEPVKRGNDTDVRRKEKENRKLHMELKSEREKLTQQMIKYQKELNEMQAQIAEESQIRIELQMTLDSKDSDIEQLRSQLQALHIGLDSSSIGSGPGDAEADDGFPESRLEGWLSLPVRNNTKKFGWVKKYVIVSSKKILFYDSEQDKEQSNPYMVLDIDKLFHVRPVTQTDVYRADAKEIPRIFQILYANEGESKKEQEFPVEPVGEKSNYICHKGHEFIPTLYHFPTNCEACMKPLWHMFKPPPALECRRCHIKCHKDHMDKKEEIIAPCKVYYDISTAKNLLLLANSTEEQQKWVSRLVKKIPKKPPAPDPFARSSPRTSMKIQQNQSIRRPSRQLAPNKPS

`N[C@H]1CC[C@@H](Oc2ccc3cnccc3c2Cl)CC1`: the IC50 is no more than 1000 nM. For `N[C@H]1CC[C@@H](Oc2ccc3cncc(Cl)c3c2)CC1` the value was no more than 1000 nM. For `N[C@H]1CC[C@@H](Oc2ccc3cnccc3c2-c2ccsc2)CC1` the value was no more than 1000 nM; for `COc1cc(Nc2cc3cc(O[C@H]4CC[C@@H](N)CC4)ccc3cn2)cc(OC)c1OC`, no more than 1000 nM; for `C=Cc1c(O[C@H]2CC[C@@H](N)CC2)ccc2cnccc12`, no more than 1000 nM. As for `N[C@H]1CC[C@H](Oc2c(Cl)cc3cnccc3c2Cl)CC1`, the figure is no more than 1000 nM.

Turning to `Clc1c(OC2CCC(NC3CCCCC3)CC2)ccc2cnccc12` (stereo not given), the IC50 is no more than 1000 nM. As for `CC(C)N[C@H]1CC[C@@H](Oc2ccc3cnccc3c2)CC1`, the figure is no more than 1000 nM. As for `c1cc2cc(O[C@H]3CC[C@@H](NC4CC4)CC3)ccc2cn1`, the figure is no more than 1000 nM. `c1cncc(CN[C@H]2CC[C@@H](Oc3ccc4cnccc4c3)CC2)c1` had an IC50 of no more than 1000 nM. For `CC(=O)Nc1ccc(CN[C@H]2CC[C@@H](Oc3ccc4cnccc4c3)CC2)cc1` the value was no more than 1000 nM; for `CC1(c2ccc(CNC3CCC(Oc4ccc5cnccc5c4)CC3)cc2)NC(=O)NC1=O` (stereo not given), no more than 1000 nM. As for `CCc1cncc2ccc(O[C@H]3CC[C@@H](N)CC3)cc12`, the figure is no more than 1000 nM; as for `CN(C)C=NS(=O)(=O)c1cc(CN[C@H]2CC[C@@H](Oc3ccc4cnccc4c3Cl)CC2)ccc1Cl`, no more than 1000 nM; as for `N[C@H]1CC[C@@H](Oc2ccc3cnccc3c2Br)CC1`, no more than 1000 nM.

By IC50 is commonly meant the concentration that gives 50% inhibition. Low values mean higher potency, high ones lower potency.
